According to PubChem BioAssay (NCI):
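Compound exposure: 48 hours, 5 concentrations, 96-well plates. TGI: concentration producing complete growth inhibition.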

How the values were obtained:
Assay in all cases: NCI anticancer screen, dose series, 48 h
KM12 colon = test system: KM12 colon
SK-MEL-2 melanoma = test system: SK-MEL-2 melanoma
SF-295 CNS = test system: SF-295 CNS
NCI-H460 lung = test system: NCI-H460 lung
HL-60(TB) leukemia = test system: HL-60(TB) leukemia
T-47D breast = test system: T-47D breast
U251 CNS = test system: U251 CNS
TK-10 renal = test system: TK-10 renal
SF-268 CNS = test system: SF-268 CNS
CCRF-CEM leukemia = test system: CCRF-CEM leukemia

Structure (SMILES)	TGI (KM12 colon)	TGI (SK-MEL-2 melanoma)	TGI (SF-295 CNS)	TGI (NCI-H460 lung)	TGI (HL-60(TB) leukemia)	TGI (T-47D breast)	TGI (U251 CNS)	TGI (TK-10 renal)	TGI (SF-268 CNS)	TGI (CCRF-CEM leukemia)
NC(N)=N/N=C/c1c(-c2ccc([N+](=O)[O-])cc2)nc2sccn12	1.88 µM	3.33 µM	2.87 µM	4.03 µM	5.8 µM	3.58 µM	2.95 µM	3.22 µM	–	–
CC(CCC(=O)O)[C@H]1CCC2[C@H]3C(CC[C@@]21C)[C@@]1(C)CCC(O)C[C@H]1C[C@@H]3O (some centres undefined)	> 100 µM	> 100 µM	–	> 100 µM	> 100 µM	> 100 µM	> 100 µM	> 100 µM	> 100 µM	> 100 µM
Cc1cc(C)c(S(=O)(=O)N(CCCCN)OCCCN)c(C)c1	35 µM	30.9 µM	37 µM	33.4 µM	–	33.4 µM	28.8 µM	32 µM	34.3 µM	38.3 µM
Cc1cc(S(=O)(=O)Nc2nnc3c(C(F)(F)F)cc(Cl)cn23)c(S)cc1Cl	> 100 µM	> 100 µM	–	> 100 µM	> 100 µM	> 100 µM	> 100 µM	> 100 µM	> 100 µM	> 100 µM
O=C(O)C(CCc1ccccn1)c1ccccc1 (centres undefined)	> 100 µM	> 100 µM	> 100 µM	> 100 µM	> 100 µM	> 100 µM	> 100 µM	> 100 µM	> 100 µM	–
O=C(c1ccc2ccccc2c1)C1S(=O)(=O)OCCOS1(=O)=O	> 100 µM	> 100 µM	> 100 µM	> 100 µM	> 100 µM	–	> 100 µM	> 100 µM	–	> 100 µM
CC(C)CCC[C@@H](C)[C@H]1CC[C@H]2[C@@H]3CC=C4C[C@@H](OC(=O)c5cccc6c(=O)c7ccccc7[nH]c56)CC[C@]4(C)[C@H]3CC[C@]12C	> 75 µM	> 75 µM	> 75 µM	–	–	> 75 µM	> 75 µM	> 75 µM	> 75 µM	–
CC[C@]12C=CCN3CCC4(c5cc(N=Nc6ccccc6)c(OC)cc5N(C)[C@H]4[C@@](O)(C(=O)OC)[C@@H]1OC(C)=O)[C@@H]32 (some centres undefined)	37.7 µM	31.4 µM	34.5 µM	33.5 µM	38.1 µM	–	29.4 µM	34.1 µM	33 µM	–
CC(=O)NC1C(CO)O[C@@H]2OC(C)(C)O[C@H]12 (some centres undefined)	> 100 µM	> 100 µM	> 100 µM	> 100 µM	> 100 µM	–	> 100 µM	> 100 µM	> 100 µM	> 100 µM
COC(=O)c1ccc(-c2nc(C#N)c(N)o2)cc1	> 100 µM	> 100 µM	> 100 µM	> 100 µM	–	> 100 µM	> 100 µM	> 100 µM	> 100 µM	> 100 µM
C/C(O)=C(\C=N\C(N)=S)C(=O)Nc1ccccc1C	> 100 µM	> 100 µM	> 100 µM	> 100 µM	–	> 100 µM	> 100 µM	> 100 µM	> 100 µM	> 100 µM
O=S1(=O)NNC(=NCc2ccc(Cl)cc2)c2ccccc21	> 100 µM	> 100 µM	> 100 µM	> 100 µM	> 100 µM	–	> 100 µM	–	> 100 µM	> 100 µM
CN=C(Nn1cnnc1)OC	> 100 µM	> 100 µM	> 100 µM	> 100 µM	–	> 100 µM	> 100 µM	–	–	> 100 µM
CN1CCn2c(Br)ccc2C1=O	> 100 µM	> 100 µM	> 100 µM	> 100 µM	> 100 µM	–	> 100 µM	> 100 µM	> 100 µM	> 100 µM
COC(=O)C(/C(=N/NC(=O)c1ccncc1)C(=O)Nc1ccccc1OC)c1nc2ccc(Cl)cc2[nH]c1=O (centres undefined)	> 100 µM	> 100 µM	> 100 µM	> 100 µM	> 100 µM	> 100 µM	> 100 µM	> 100 µM	> 100 µM	–
O=C(c1ccccc1)c1c(C(F)(F)F)n([O-])c2ccccc2[n+]1=O	3.89 µM	3.43 µM	–	5.72 µM	1.42 µM	2.85 µM	> 100 µM	3.6 µM	–	> 100 µM
c1ccc(CCN2CCCCCC2)nc1	> 100 µM	> 100 µM	> 100 µM	> 100 µM	–	> 100 µM	> 100 µM	> 100 µM	> 100 µM	> 100 µM
COC(=O)c1sc(=S)sc1SCc1ccccc1CSc1sc(=S)sc1C(=O)OC	> 100 µM	> 100 µM	> 100 µM	> 100 µM	–	–	> 100 µM	> 100 µM	> 100 µM	87.6 µM
CCCCc1c2c(nc3c1CCc1cc4c(nc1-3)-c1nc3c(c(CCCC)c1CC4)CCC/C3=C\c1ccccc1)/C(=C/c1ccccc1)CCC2	> 100 µM	> 100 µM	> 100 µM	> 100 µM	> 100 µM	–	> 100 µM	> 100 µM	> 100 µM	> 100 µM
CNC(=O)CCC(NC(C)=O)C(=O)NC(Cc1ccc(NC(=O)CCCCC(C)=O)cc1)C(=O)NC(CCC(=O)NC)C(=O)NC (centres undefined)	> 100 µM	–	> 100 µM	> 100 µM	> 100 µM	> 100 µM	> 100 µM	> 100 µM	> 100 µM	–
N#Cc1c(Nc2ccc(F)cc2)[n+]([O-])c2ccc(Cl)cc2[n+]1[O-]	> 100 µM	77.9 µM	4.95 µM	7.97 µM	–	38.9 µM	19.1 µM	> 100 µM	14.2 µM	> 100 µM
COc1cc2cc(C(=O)N3CC(CCl)c4c3cc(N)c3ccccc43)[nH]c2cc1OCCN(C)C (centres undefined)	0.0116 µM	0.00726 µM	–	8.68 µM	–	0.0394 µM	–	8.67 µM	0.712 µM	< 0.005 µM
COc1cc(C2C3=C(CCC3=O)Oc3cc4c(cc32)OCO4)cc(OC)c1OC (centres undefined)	–	–	0.532 µM	> 100 µM	0.596 µM	–	> 100 µM	69.2 µM	–	> 100 µM
CCOC(=O)c1cc2c(OC(C)=O)ccc(OC(C)=O)c2s1	17.6 µM	7.72 µM	18.3 µM	22.2 µM	2.97 µM	–	10.4 µM	17.5 µM	3.85 µM	5.29 µM
Clc1nc(-[n+]2ccc(-c3ccncc3)cc2)nc(Nc2ccccc2)c1Cl	> 100 µM	> 100 µM	–	> 100 µM	> 100 µM	> 100 µM	> 100 µM	> 100 µM	> 100 µM	90.2 µM
